Reference: patent US20210403415A1, “COMPOUNDS AND METHODS TO ATTENUATE TUMOR PROGRESSION AND METASTASIS” (THE TRUSTEES OF INDIANA UNIVERSITY, priority 2018, published 2021)

Experiments:
[1] = target: T1, TEAD4 binding to full-length Yap1 (Homo sapiens, UniProt Q15561); test: Biolayer interferometry, TEAD4 binding to captured full-length GST-Yap1; conditions: 100 nM TEAD4 pre-incubated 24 or 48 h at 4° C.
T1 construct: TEAD4 (217-434), TEAD4 (217-434) Cys367Ser mutant and Yap1 (Full-length) were expressed as GST-fusion proteins; GST (N); made in house; host or cells: E. coli BL-21 (DE3), pGEX-6P-1
Experimental: Biolayer interferometry was measured on OctetRed 384 (ForteBio, Menlo Park, Calif.) using PBS with 0.025% v/v Tween-20 at 30° C. with constant shaking at 1000 rpm. Streptavidin-conjugated sensors (ForteBio, Menlo Park, Calif.) were loaded with 30 μg/ml biotin-labeled GST-Yap or biocytin and were introduced to 1-1000 nM TEAD4. The sensors were regenerated with 5 mM HCl solution after each interaction. For compound inhibition study, 100 nM TEAD4 was pre-incubated with […] compound 2 in 2% v/v DMSO for 24 h at 4° C. before interaction with captured GST-Yap.

GST-TEAD4 = target: T2, GST-TEAD4 (Homo sapiens, UniProt Q15561); test: Size-exclusion chromatography for protein aggregation; conditions: 100 μM, 24 h at 4° C.
T2 construct: TEAD4 (217-434), TEAD4 (217-434) Cys367Ser mutant and Yap1 (Full-length) were expressed as GST-fusion proteins; made in house; host or cells: E. coli BL-21 (DE3), pGEX-6P-1
Experimental: 2 ml of 6.3 μM GST-TEAD4 in PBS was incubated with 100 μM 2 compound 2 in 2% v/v DMSO or DMSO without compound for 24 h at 4° C. After the incubation, the samples were injected into a HiLoad 26/600 Superdex 200 pg SEC column, pre-equilibrated with PBS. The elution profile of the column was analyzed for protein aggregation.

TEAD4.Yap1 interaction = TEAD4.Yap1 interaction (Homo sapiens, UniProt Q15561); test: Co-immunoprecipitation of Myc-tagged TEAD4 with Flag-tagged Yap1 in HEK293 cells; format: cell-based; parameters: expressed in transfected cells; host or cells: HEK293; conditions: 5 μM, 48 hours
Experimental: HEK293 cells transfected with Flag-YAP1 alone or in combination with myc-TEAD4 were incubated with DMSO or the indicated amount of compounds for 48 hours. Cells were harvested in lysis buffer (50 mM Tris-HCl, pH 7.3, 150 mM NaCl, 0.5 mM EDTA, 1% Triton X-100, PhosSTOP phosphatase inhibitor cocktail, and complete EDTA-free protease inhibitors cocktail). Extracts were immunoprecipitated with magnetic beads coupled to the M2 (anti-Flag) antibody (Sigma-Aldrich) for 4 h at 4° C. Dynabeads were then washed and bound proteins were denatured and eluted according to the manufacturer's instructions. Relative levels of myc-TEAD4 from each complex was then measured by immunoblot analysis with the anti-c-Myc antibody (1:5,000, Sigma-Aldrich).

T2 sequence (Q15561 217-434): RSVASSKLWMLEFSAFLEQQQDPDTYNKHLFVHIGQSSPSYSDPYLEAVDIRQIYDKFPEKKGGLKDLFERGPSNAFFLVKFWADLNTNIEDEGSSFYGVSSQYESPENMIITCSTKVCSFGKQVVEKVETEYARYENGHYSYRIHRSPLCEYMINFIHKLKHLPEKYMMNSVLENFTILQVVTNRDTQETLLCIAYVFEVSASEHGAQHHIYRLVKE
T1 sequence (Q15561 217-434): as above
Sequence of TEAD4.Yap1 interaction (Q15561 whole entry): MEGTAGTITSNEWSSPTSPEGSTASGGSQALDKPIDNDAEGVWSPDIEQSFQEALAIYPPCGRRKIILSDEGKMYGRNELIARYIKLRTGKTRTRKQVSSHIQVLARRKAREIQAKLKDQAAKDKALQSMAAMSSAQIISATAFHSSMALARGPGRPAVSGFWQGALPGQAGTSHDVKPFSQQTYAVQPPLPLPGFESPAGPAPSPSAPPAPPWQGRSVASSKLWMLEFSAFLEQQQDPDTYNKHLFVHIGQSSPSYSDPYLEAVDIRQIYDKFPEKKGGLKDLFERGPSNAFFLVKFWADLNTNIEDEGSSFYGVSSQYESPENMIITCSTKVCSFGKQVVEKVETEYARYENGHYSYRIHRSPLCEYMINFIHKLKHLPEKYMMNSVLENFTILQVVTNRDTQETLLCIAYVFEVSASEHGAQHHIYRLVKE

Structure (SMILES): O=C(CCl)c1ccccc1Nc1cccc(C(F)(F)F)c1 [Compound 2, 2-chloro-1-(2-((3-(trifluoromethyl)phenyl)amino)phenyl)ethanone]
- inhibition of TEAD4 binding to full-length Yap1 [1]: dose- and time-dependent inhibition
- aggregation of GST-TEAD4 (GST-TEAD4): No significant aggregation
- co-immunoprecipitation of Myc-tagged TEAD4 with Flag-Tagged Yap1 (TEAD4.Yap1 interaction): significant loss of co-immunoprecipitation
